Source: paper PMC6089501 (Journal of Medicinal Chemistry, 2018)
In brackets after ≈: the same amount, converted by molar mass. Several values for one entry are separate records, joined by “and”; a condition that tells them apart may be missing. Identical values can stand only once. Like-named read-outs stand apart in the source and are kept apart here.

What was measured:
[1] = for CL mouse MEAN: microsomes
M. tuberculosis H37Rv = test: microbe, parasite or virus in culture; assay type: cell-based, Mycobacterium tuberculosis; conditions: for MIC90: read-out: MIC (MIC90); for IC90: read-out: TB-IC90_OD GEOM_MEAN
Vero cells [2] = conditions: read-out: VERO IC50
Procedure: (§1) Compounds were solubilized in DMSO and assayed as a 10-point 3-fold serial dilution. Compounds were incubated with cells for 2 days at 37 °C, 5% CO2. CellTiter-Glo Reagent (Promega) was added and relative luminescent units (RLU) measured.

Vero cells [3] = test: cells; conditions: Chlorocebus sabaeus, read-out: VERO IC50
Procedure: as §1

in vitro = conditions: dog, MDCK-MDR1
[4] = Mycobacterium tuberculosis, H37RV

| Compound | CL mouse MEAN ([1]; mouse) | MIC (MIC90) (M. tuberculosis H37Rv) | IC50 (Vero cells [2]) | Cli mouse ([1]; female, CD1, mouse, pH 7.4) | IC50 (Vero cells [3]) | MIC90 (M. tuberculosis H37Rv; [4]) | IC90 (M. tuberculosis H37Rv; [4]) | MIC (M. tuberculosis H37Rv; Mycobacterium tuberculosis, H37RV, read-out: MIC WT) | chromatographic logD (physchem) | drop in potency / activity (M. tuberculosis H37Rv) | CL mouse MEAN ([1]; female, CD1, mouse, pH 7.4) | Papp A→B (in vitro) | Papp B→A (in vitro) |
| --- | --- | --- | --- | --- | --- | --- | --- | --- | --- | --- | --- | --- | --- |
| 3-(2,2-Difluoro-2-phenylethoxy)-5-morpholinothiophene-2-carboxamide [Compound 50] | 19.1 mL/min/g | >20 (2) μM | 95 µM |  |  |  |  |  |  |  |  |  |  |
| 5-(3-Methylmorpholino)-3-phenethoxythiophene-2-carboxamide [Compound 31] | 11.19 mL/min/g | >20 (2) μM | 77 µM and 79.4 µM |  |  |  |  |  |  |  |  |  |  |
| 5-[2-Methoxyethyl(methyl)amino]-3-(2-phenylethoxy)thiophene-2-carboxamide [Compound 32] | 28.42 mL/min/g | >20 (3) μM | > 100 µM |  |  |  |  |  |  |  |  |  |  |
| COC(=O)c1sc(N2CCOCC2)cc1OCCc1ccccc1 [Compound 14, Methyl 5-Morpholino-3-(2-phenylethoxy)thiophene-2-carboxylate] |  |  |  | 50 mL.min^–1.g^–1 | > 100 µM | > 20 µM |  |  |  |  |  |  |  |
| O=C(NO)c1sc(N2CCOCC2)cc1OCCc1ccccc1 [Compound 16, 5-Morpholino-3-(2-phenylethoxy)thiophene-2-carbohydroxamic Acid] | 6.073 mL/min/g |  | 58 µM | 6 mL.min^–1.g^–1 | 58 µM | 3.5 µM (≈ 1.22 µg/mL) | 3.32 µM |  |  |  |  |  |  |
| CNC(=O)c1sc(N2CCOCC2)cc1OCCc1ccccc1 [Compound 21, N-Methyl-5-morpholino-3-(2-phenylethoxy)thiophene-2-carboxamide] | 35.49 mL/min/g |  | 72.4 µM | 36 mL.min^–1.g^–1 | 91 µM | 0.12 µM (≈ 0.0416 µg/mL) | 0.133 µM | 0.08 µM (≈ 0.0277 µg/mL) | 2.44 |  |  |  |  |
| CCNC(=O)c1sc(N2CCOCC2)cc1OCCc1ccccc1 [Compound 22, N-Ethyl-5-morpholino-3-(2-phenylethoxy)thiophene-2-carboxamide] | 50 mL/min/g |  | 56 µM | 50 mL.min^–1.g^–1 | 56 µM | 1.7 µM (≈ 0.613 µg/mL) | 1.67 µM |  |  |  |  |  |  |
| NC(=O)c1sccc1OCCc1ccccc1 [Compound 27, 3-(2-Phenylethoxy)thiophene-2-carboxamide] | 26 mL/min/g |  |  | 26 mL.min^–1.g^–1 | > 100 µM | > 20 µM | > 20 µM |  | 2.05 |  |  |  |  |
| CNC(=O)c1sc(N2CC3CC2CO3)cc1OCCc1ccccc1 (centres unmarked) [Compound 30, 5-(2-Oxa-5-azabicyclo[2.2.1]heptan-5-yl)-N-methyl-3-phenethoxythiophene-2-carboxamide] | 12.51 mL/min/g |  | 69.2 µM | 13 mL.min^–1.g^–1 | 72 µM | 3.8 µM (≈ 1.36 µg/mL) | 3.64 µM |  |  | > 5 fold |  |  |  |
| COc1ccc(CCOc2cc(N3CCOCC3)sc2C(N)=O)cc1 [Compound 36, 3-[2-(4-Methoxyphenyl)ethoxy]-5-morpholinothiophene-2-carboxamide] | 5.742 mL/min/g |  |  | 5.7 mL.min^–1.g^–1 | > 100 µM | 0.63 µM (≈ 0.228 µg/mL) | 0.57 µM |  | 1.73 |  |  |  |  |
| NC(=O)c1sc(N2CCOCC2)cc1OCCc1ccccc1F [Compound 38] |  |  | 83.2 µM | 25 mL.min^–1.g^–1 | 84 µM | 3.4 µM (≈ 1.19 µg/mL) | 3.7 µM |  | 2.05 |  | 25.22 mL/min/g |  |  |
| NC(=O)c1sc(N2CCOCC2)cc1OCCc1ccc(F)cc1 [Compound 40] |  |  |  | 13 mL.min^–1.g^–1 | > 100 µM | 0.9 µM (≈ 0.315 µg/mL) |  |  | 1.85 |  | 12.72 mL/min/g |  |  |
| COc1cccc(CCOc2cc(N3CCOCC3)sc2C(N)=O)c1 [Compound 41, 3-[2-(3-Methoxyphenyl)ethoxy]-5-morpholinothiophene-2-carboxamide] | 10.31 mL/min/g |  |  | 10 mL.min^–1.g^–1 | 89 µM | 1.6 µM (≈ 0.58 µg/mL) |  |  | 1.85 |  |  |  |  |
| COc1ccccc1CCOc1cc(N2CCOCC2)sc1C(N)=O [Compound 42, 3-[2-(2-Methoxyphenyl)ethoxy]-5-morpholinothiophene-2-carboxamide] | 26.42 mL/min/g |  |  | 26 mL.min^–1.g^–1 | > 100 µM | > 20 µM |  |  | 1.95 |  |  |  |  |
| NC(=O)c1sc(N2CCOCC2)cc1OCCc1ccncc1 [Compound 43, 5-Morpholino-3-[2-(4-pyridyl)ethoxy]thiophene-2-carboxamide] | 8.013 mL/min/g |  |  | 8 mL.min^–1.g^–1 | > 100 µM | > 20 µM |  |  | 0.617 |  |  |  |  |
| N#Cc1ccc(CCOc2cc(N3CCOCC3)sc2C(N)=O)cc1 [Compound 44, 3-[2-(4-Cyanophenyl)ethoxy]-5-morpholino-thiophene-2-carboxamid] | 4.758 mL/min/g |  |  | 4.8 mL.min^–1.g^–1 | > 100 µM | 14 µM (≈ 5 µg/mL) |  |  | 1.56 |  |  |  |  |
| NC(=O)c1sc(N2CCOCC2)cc1OCC1CCCO1 (centres unmarked) [Compound 45, 5-Morpholino-3-((tetrahydrofuran-2-yl)methoxy)thiophene-2-carboxamide] | 4.249 mL/min/g |  |  | 4.3 mL.min^–1.g^–1 | > 100 µM | > 20 µM |  |  |  |  |  |  |  |
| NC(=O)c1sc(N2CCOCC2)cc1OCCN1CCOCC1 [Compound 47, 5-Morpholino-3-(2-morpholinoethoxy)thiophene-2-carboxamide] | 0.8847 mL/min/g |  |  | 0.9 mL.min^–1.g^–1 | > 100 µM | > 20 µM |  |  | 0.189 |  |  |  |  |
| NC(=O)c1sc(N2CCOCC2)cc1OCc1ccccc1 [Compound 48, 3-Benzyloxy-5-morpholinothiophene-2-carboxamide] | 14.31 mL/min/g |  |  | 14 mL.min^–1.g^–1 | > 100 µM | > 20 µM |  |  | 1.52 |  |  |  |  |
| NC(=O)c1sc(N2CCOCC2)cc1CCCc1ccccc1 [Compound 49, 5-Morpholino-3-(3-phenylpropyl)thiophene-2-carboxamide] | 20.17 mL/min/g |  |  | 20 mL.min^–1.g^–1 | 69 µM | 3.5 µM (≈ 1.16 µg/mL) |  |  |  |  |  |  |  |
| NC(=O)c1sc(N2CCOCC2)cc1OCC(O)c1ccccc1 (centres unmarked) [Compound 51, 3-(2-Hydroxy-2-phenylethoxy)-5-morpholinothiophene-2-carboxamine] | 3.788 mL/min/g |  |  | 3.8 mL.min^–1.g^–1 | > 100 µM | > 20 µM |  |  | 1.12 |  |  |  |  |
| NC(=O)c1sc(N2CCOCC2)cc1OC1CCCc2ccccc21 (centres unmarked) [Compound 52, 5-Morpholino-3-tetralin-1-yloxy-thiophene-2-carboxamide] | 5.383 mL/min/g |  |  | 5.4 mL.min^–1.g^–1 | 56 µM | > 20 µM |  |  | 2.22 |  |  |  |  |
| NC(=O)c1sc(N2CCOCC2)cc1OC1CCc2ccccc21 (centres unmarked) [Compound 53, 3-Indan-1-yloxy-5-morpholinothiophene-2-carboxamide] | 1.393 mL/min/g |  |  | 1.4 mL.min^–1.g^–1 | > 100 µM | > 20 µM |  |  | 1.15 |  |  |  |  |
| NC(=O)c1ccc(N2CCOCC2)cc1OCCc1ccccc1 [Compound 54, 4-Morpholino-2-phenethoxybenzamide] | 12.21 mL/min/g |  |  | 12 mL.min^–1.g^–1 | > 100 µM | > 20 µM |  |  | 2.11 |  |  |  |  |
| NC(=O)c1nc(N2CCOCC2)ccc1OCCc1ccccc1 [Compound 57, 6-Morpholino-3-(2-phenylethoxy)pyridine-2-carboxamide] | 2.315 mL/min/g |  |  | 2.3 mL.min^–1.g^–1 | > 100 µM | 6.9 µM (≈ 2.26 µg/mL) |  |  | 1.61 |  |  |  |  |
| COCCc1ccc(OCC(O)CNC(C)C)cc1 (centres unmarked) [Metoprolol, reference compound] |  |  |  |  |  |  |  |  |  |  |  | 55 ×10⁻⁶ cm/s | 40 ×10⁻⁶ cm/s |
